Here are results for one compound from US11517541B2, “Applications of spermidine and its derivatives” (GENEHEAL BIOTECHNOLOGY CO., LTD., priority 2017, dated 2022).

In one assay the target is T1, PAICS (Homo sapiens, UniProt P22234).
T1 sequence (P22234 1-425): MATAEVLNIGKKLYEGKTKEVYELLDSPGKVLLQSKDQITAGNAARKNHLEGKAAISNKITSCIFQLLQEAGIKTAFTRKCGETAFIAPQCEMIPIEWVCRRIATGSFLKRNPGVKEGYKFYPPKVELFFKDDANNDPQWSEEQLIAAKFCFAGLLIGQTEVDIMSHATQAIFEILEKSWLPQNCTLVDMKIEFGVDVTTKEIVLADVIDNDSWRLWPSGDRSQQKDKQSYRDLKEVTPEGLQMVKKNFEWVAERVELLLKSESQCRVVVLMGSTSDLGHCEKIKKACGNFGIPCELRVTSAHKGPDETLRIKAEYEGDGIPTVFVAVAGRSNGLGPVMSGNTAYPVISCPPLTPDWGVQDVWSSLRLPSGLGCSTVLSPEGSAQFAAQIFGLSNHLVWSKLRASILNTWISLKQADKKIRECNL
Briefly: Inhibition of spermidine on PAICS activity (SAICAR accumulation). To be noted: biochemical enzyme activity experiments and cell biology experiments. The text has this:
The accumulation of toxic compound SAICAR is reduced by inhibiting the activity of PAICS.

A further assay concerns oncogene myc. Briefly: Inhibition of oncogene MYC expression (Western Blot). The class given is cell-based. As to conditions: FIG. 4.
For assay [1], the system named is lung cancer cell strain A549. Briefly: Cancer cell growth inhibition / cell viability. Format: cell-based. To be noted: Homo sapiens, after 48 hours of drug administration.
In assay [2] the test system is lung cancer cell strain H1299. Put plainly: Cancer cell growth inhibition / cell viability. The class given is cell-based. As to conditions: Homo sapiens, NCI-H1299, after 48 hours of drug administration.
Assay [3] has as its system lung cancer cell strain PC9. Briefly: Cancer cell growth inhibition / cell viability. Format: cell-based. To be noted: after 48 hours of drug administration.
For assay [4], the system named is breast cancer cell strain MD468. Briefly: Cancer cell growth inhibition / cell viability. As to conditions: after 48 hours of drug administration. Format: cell-based.
Assay [5] relates to breast cancer cell strain MD231. Briefly: Cancer cell growth inhibition / cell viability. The class given is cell-based. To be noted: after 48 hours of drug administration.

For `NCCCCNCCCN` [spermidine], at PAICS, the “inhibition of the accumulation of SAICAR” value is given as “up to 68.98%”. In addition, the “expression of oncogene myc” value in the assay with oncogene myc is recorded as “significantly down-regulated”. The IC50 amounted to 52.1 µM in assay [1]; 21.1 µM in assay [2]; 23.4 µM in assay [3]; 46.1 µM in assay [4]; 1.41 µM in assay [5].
